Article PMC11819603, “Development of a reliable, sensitive, and convenient assay for the discovery of new eIF5A hypusination inhibitors” (PLOS ONE, 2025)

Molecular target: T1, DOHH (Homo sapiens, UniProt Q9BU89)
T1 construct: pelB leader (N); host or cells: E. coli BL21 (DE3)
T1 sequence (Q9BU89 1-302): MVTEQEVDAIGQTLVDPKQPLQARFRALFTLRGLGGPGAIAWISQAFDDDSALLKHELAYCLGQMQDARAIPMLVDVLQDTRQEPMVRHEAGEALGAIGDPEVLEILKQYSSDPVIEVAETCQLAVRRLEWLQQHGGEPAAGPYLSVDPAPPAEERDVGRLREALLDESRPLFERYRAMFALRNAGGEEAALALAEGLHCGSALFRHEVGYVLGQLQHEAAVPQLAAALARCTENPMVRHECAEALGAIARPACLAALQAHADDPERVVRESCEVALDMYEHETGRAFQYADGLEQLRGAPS
Assay: Hyp'Assay, substance added after the deoxyhypusination reaction (DOHH step)
Type: biochemical
Details: 5 μM spermidine
Description: We then tested the ability of DOHH inhibitors to inhibit eIF5A hypusination using the Hyp’Assay. During the Hyp’Assay, DOHH inhibitors were added after the deoxyhypusination reaction.
To address this issue, we compared the ability of GC7 to inhibit DHPS or DOHH by adding GC7 during the first step of the Hyp’Assay; when DHPS mediates the deoxyhypusination reaction (Fig 2A), or only during the second step, when DOHH hydroxylate deoxyhypusinated eIF5A. […] When finding new hypusination inhibitors adding them during the first or the second step of the Hyp’Assay will allow us to determine if the inhibition affects DHPS or DOHH. Another way to discriminate between DHPS or DOHH inhibitors would be to use Hpu98, an antibody that recognized both hypusinated and deoxyhypusinated eIF5A, instead of Hpu24, which is specific for hypusinated eIF5A [18]. […] We performed a new Hyp’Assay by omitting DOHH in the reaction mix and using the Hpu98 antibody. First, we performed a dose response experiment with spermidine at pH: 8.0 and 9.0 (Fig 3E). […] We also tested the ability of GC7 (Fig 3F) and CPX or EDTA (Fig 3G) to inhibit DHPS.
[…] Then 10 μL containing 1 μg of DOHH with 10 μM Fe^2+ (H8FeN2O8S2^. 6H2O) were added. After 1 h proteins were analyzed by Western Blot using antibodies toward DHPS, DOHH, Hypusine, and eIF5A.
The cell-free reaction described in 4.4 is performed in triplicates in a 96-wells plate (MaxiSorp, ThermoFisher) in the presence of 3 μg of eIF5A, 2 μg of DHPS, and 2 μg of DOHH by well. The reaction product, hypusinated eIF5A, is adsorbed onto the plate overnight at 4°C. The plate is washed (100 μL/well) thrice with PBS-T (PBS– 0.05% Tween20), then saturated with 1% non-fat dry milk in PBS-T for 2 h at room temperature. The plate is washed thrice with PBS-T and incubated overnight at 4°C with the anti-hypusine antibody (1:2000 in saturation buffer, 50 μL/well). The next day and after 5 washes with PBS-T, HRP-coupled anti-rabbit secondary antibody diluted 1:5000 in saturation buffer (50 μL/well) is added for 2 h at room temperature.

**Q.** N=C(N)NCCCCCCCN [GC7, N1-guanyl-1,7-diaminoheptane] was tested. Which “Relative hypusination of eIF5A, Mean (quantification from Figure 3D)” value (GC7 added during the DOHH step, CTRL 100,0) did it give?
**A.** The value was 99,58 a.u.

**Q.** What about the effect on hypusination (added only during the hydroxylation step (DOHH)) of the same compound?
**A.** Its effect on hypusination is “no inhibition was observed”.
